Two molecules from patent US6949544B2, “Inhibitors of c-Jun N-terminal kinases (JNK) and other protein kinases” (Vertex Pharmaceuticals Incorporated, priority 2001, dated 2005) can be followed below.

One may read the Ki as a measure of affinity in units of concentration, obtained from inhibition or displacement.

Structures are written as SMILES. Where only a bound is given, the exact number is not on record here.

In assay [1] the target is CDK-2/Cyclin A (Homo sapiens, UniProt P24941). Nature of the assay: CDK2 inhibition assay (standard coupled enzyme assay). In kind it is biochemical. The note with it: 25 nM CDK-2/Cyclin A; read-out: CDK2 Inhibitory Activity (Ki rating A-C). Summed up:
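Pyruvate kinase/lactate dehydrogenase-coupled assay in pH 7.5 HEPES with 100 μM peptide substrate and ATP […]; compound (30 μM final) preincubated 10 min at 30° C before adding CDK-2/Cyclin A to 25 nM.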

The target of assay [2] is T1, Lck kinase purified from bovine thymus (Bos taurus, UniProt Q3ZCM0).
T1 construct: Lck kinase purified from bovine thymus; purchased Upstate Biotechnology 14-106; host or cells: bovine thymus (tissue-purified)
T1 sequence (Q3ZCM0 1-509): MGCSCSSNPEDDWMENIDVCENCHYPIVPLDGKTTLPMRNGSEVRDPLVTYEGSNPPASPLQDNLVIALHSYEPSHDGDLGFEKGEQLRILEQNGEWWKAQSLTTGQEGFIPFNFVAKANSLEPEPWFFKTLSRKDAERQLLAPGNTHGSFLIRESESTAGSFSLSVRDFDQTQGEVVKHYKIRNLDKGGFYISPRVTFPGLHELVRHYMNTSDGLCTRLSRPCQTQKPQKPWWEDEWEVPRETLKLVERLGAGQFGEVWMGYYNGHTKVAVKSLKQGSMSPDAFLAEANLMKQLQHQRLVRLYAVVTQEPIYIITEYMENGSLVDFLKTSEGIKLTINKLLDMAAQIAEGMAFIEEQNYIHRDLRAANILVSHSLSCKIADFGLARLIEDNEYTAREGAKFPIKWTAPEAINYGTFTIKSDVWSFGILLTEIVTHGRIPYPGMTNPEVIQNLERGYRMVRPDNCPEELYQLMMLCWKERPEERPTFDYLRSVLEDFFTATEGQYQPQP
Nature of the assay: Lck inhibition assay (33P incorporation into poly Glu-Tyr). In kind it is biochemical. The note with it: 10 μM ATP; read-out: Activity in the Lck Inhibition Assay (Ki rating A-C). Summed up:
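Filter-binding radiometric assay of 33P transfer from ATP to poly Glu-Tyr (4:1, 5 mg/ml) by bovine thymus Lck in 0.05 M HEPES pH 7.6, 10 mM MgCl2, 2 mM DTT, 0.25 mg/ml BSA, 10 μM ATP. After 10 min at 30° C, reaction started with 33P-ATP, run 20 min, quenched with TCA; filter-bound radioactivity counted by scintillation.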

Regarding `COc1cc(-c2ccnc(Nc3ccc(N)cc3)n2)cc(OC)c1OC` [Compound I-34], the Ki in assay [1] was more than 5 µM; in assay [2], more than 1 µM.

In the case of `COc1cc(-c2ccnc(Nc3cccc(N)c3)n2)cc(OC)c1OC` [Compound I-57], the Ki in assay [1] is more than 5 µM; in assay [2] it was 0.1 to 1 µM.
